Measurements reported in patent publication US7211596B2, “Stable high-concentration injection containing pyrazolone derivative” (Mitsubishi Pharma Corporation, priority 2001, dated 2007).
≈ marks a conversion by molar mass, not a printed value.

Experiment: Test 1: solubility of Edaravone in various aqueous solubilizer solutions (saturated solution at 4° C., HPLC)
Assay type: physicochemical
Details: aqueous with cosolvent or surfactant or cyclodextrin, thermodynamic from solid
Method: Water for injection (5 mL) was added to 5 mL of each of ethanol, propylene glycol, polyethylene glycol 400 and N,N-dimethylacetamide widely used as a solubilizer for an intravenous injection, followed by stirring. Edaravone was added to the resulting aqueous solubilizer solution and the mixture was stirred in a thermostat maintained at 4° C. by using a stirrer at a fixed but not bubbling speed all day and night. After completion of the stirring, a portion of Edaravone which had remained undissolved was checked visually to confirm that each solution thus obtained was a saturated aqueous solution of Edaravone. Then, the solution was quickly filtered through a membrane filter (pore size: 0.45 μm) kept at 4° C. and the amount of Edaravone contained in the filtrate was measured by HPLC method as explained below. Further, the maximum amount of each of the solubilizers used a day as an injection for intravenous administration was also shown (Iyakuhin-tenkabutu-jiten 2000 (published by Yakuji-nippou-sha), p. 127, 264 and 229 to 230. The maximum amount of ethanol was calculated based on the amount used for NIMOTOP IV (registered trademark, Bayer Co.)) and its solubilizing effect on Edaravone was calculated as a numerical term.
Measuring Method by HPLC and its Conditions:
By liquid chromatography (LC) using ethyl paraaminobenzoate as an internal standard substance, a peak area ratio of Edaravone to the internal standard substance was found and based on it, the concentration of Edaravone was determined. • Detector: Ultraviolet spectrophotometer (wavelength measured: 240 nm) • Column: A stainless tube having inside diameter of about 4 mm and length of about 15 cm and filled with octadecylsilylated silica-gel 5 μm was used at a fixed temperature near 50° C. • Mobile phase: A (3:1) mixed solution of 10 mM aqueous acetic acid solution and methanol, adjusted to pH 5.5 with aqueous ammonia • Flow rate: adjusted so that the retention time of Edaravone would be about 8 minutes.

Structure (SMILES): CC1=NN(c2ccccc2)C(=O)C1 [Edaravone, 3-Methyl-l-phenyl-2-pyrazolin-5-one]
- solubility (50 v/v % N,N-dimethylacetamide in water, in 50 v/v % N,N-Dimethylacetamide, 4° C.): 20 mg/mL (≈ 115 mM)
- solubility (50 v/v % ethanol in water, in 50 v/v % Ethanol, 4° C.): 10 mg/mL (≈ 57.4 mM)
- solubility (50 v/v % polyethylene glycol 400 in water, in 50 v/v % Polyethylene glycol 400, 4° C.): 13 mg/mL (≈ 74.6 mM)
- solubility (50 v/v % propylene glycol in water, in 50 v/v % Propylene glycol, 4° C.): 6 mg/mL (≈ 34.4 mM)
